Patent publication US11191766B2, “Methods of treating pediatric cancers” (Loxo Oncology, Inc., priority 2016, dated 2021)
Counter-ions that a name gives are not always drawn.

Legend:
[1] = Hygroscopicity: dynamic vapor sorption (DVS) / exposure to humidity; format: physicochemical; conditions: for hygroscopicity: non-hygroscopic = less than a 2% weight gain at 25° C. and 80% RH after 24 to 48 hours
Protocol: For the DVS measurement a sample of crystalline form (I-HS) was cycled through changing humidity conditions to determine its hygroscopicity. The sample was analyzed using a Surface Measurement System DVS-1 Dynamic Vapor Sorption System. […] Data was collected in 1 minute intervals. Nitrogen was used as the carrier gas. […] After completion of the sorption cycle, the sample was dried using the same procedure, but all the way down to 0% RH and finally taken back to the starting point of 20% RH. The weight change during the sorption/desorption cycles were plotted, allowing for the hygroscopic nature of the sample to be determined.
The crystalline form (I-HS), as noted previously, is non-hygroscopic. […] Given this tendency, use of the AM(HS) compound would require significant handling precautions during storage and manufacture to prevent this change in form from occurring whereas the crystalline form (I-HS) requires no such precautions during manufacture of the API.

[2] = Accelerated stability study in an LDPE bag at 40° C./75% RH for five weeks; format: physicochemical
[3] = first two cycles; fever and influenza A considered not related
[4] = tested on: Infantile Fibrosarcoma with NTRK3-ETV6 Fusion; assay: Phase 1 pediatric study of oral liquid formulation, case of infantile fibrosarcoma (MR imaging response); format: in vivo, human
[5] = Flow properties (Carr's and Hausner Index); format: physicochemical
Source text: The differences in flow properties can make the development of a solid oral dosage form more difficult for the amorphous API vs. the crystalline API.

| SMILES | hygroscopicity [1] | chemical impurity levels over the course of the study [2] | adverse events related to compound [3] | response on repeat scans ([4]; end of Cycle 2, size reduction confirmed, continued decrease in enhancement) | interval reduction in the size and enhancement of the mass from baseline (MR of the brain and neck) ([4]; end of cycle 1 (day 28), BID, patient) | clinical observation noted by the parents ([4]; throughout cycle 1) | change in crystalline form during DVS (XRPD post vs pre DVS) [1] | hysteresis between sorption and desorption cycles ([1]; DVS) | increase in mass during the sorption cycle ([1]; between 0% and 90% RH) | flow properties compared with amorphous API [5] |
| --- | --- | --- | --- | --- | --- | --- | --- | --- | --- | --- |
| O=C(Nc1cnn2ccc(N3CCC[C@@H]3c3cc(F)ccc3F)nc12)N1CC[C@H](O)C1.O=S(=O)(O)O [AM(HS), (S)—N-(5-((R)-2-(2,5-difluorophenyl)pyrrolidin-1-yl)-pyrazolo[1,5-a]pyrimidin-3-yl)-3-hydroxypyrrolidine-1-carboxamide hydrogen sulfate] | deliquesce upon exposure to humidity | neither the AM(HS) or crystalline form (I-HS) exhibited a significant changes in chemical impurity levels |  |  |  |  |  |  |  |  |
| O=C(Nc1cnn2ccc(N3CCC[C@@H]3c3cc(F)ccc3F)nc12)N1CC[C@H](O)C1 [Compound I-HS, (S)—N-(5-((R)-2-(2,5-difluorophenyl)pyrrolidin-1-yl)-pyrazolo[1,5-a]pyrimidin-3-yl)-3-hydroxypyrrolidine-1-carboxamide hydrogen sulfate] |  |  | no adverse events related to Compound I-HS | partial response | more than 90% | improved engagement and playfulness |  |  |  |  |
| O=C(Nc1cnn2ccc(N3CCC[C@@H]3c3cc(F)ccc3F)nc12)N1CC[C@H](O)C1 [crystalline form (I-HS), (S)—N-(5-((R)-2-(2,5-difluorophenyl)pyrrolidin-1-yl)-pyrazolo[1,5-a]pyrimidin-3-yl)-3-hydroxypyrrolidine-1-carboxamide hydrogen sulfate] | non-hygroscopic | neither the AM(HS) or crystalline form (I-HS) exhibited a significant changes in chemical impurity levels |  |  |  |  | no change | very small hysteresis | about 1.7% | better flow properties |
